Results published in ChEMBL document CHEMBL1147828, “Discovery of indole-containing tetracycles as a new scaffold for androgen receptor ligands” (Bioorg Med Chem Lett, 2006).
The source made the active and inactive calls. The calls are words filed in the database; no cut-off is given here.

target: T1, Androgen receptor (Rattus norvegicus, UniProt P15207); test: not given; conditions: not given
T1 sequence (P15207 whole entry): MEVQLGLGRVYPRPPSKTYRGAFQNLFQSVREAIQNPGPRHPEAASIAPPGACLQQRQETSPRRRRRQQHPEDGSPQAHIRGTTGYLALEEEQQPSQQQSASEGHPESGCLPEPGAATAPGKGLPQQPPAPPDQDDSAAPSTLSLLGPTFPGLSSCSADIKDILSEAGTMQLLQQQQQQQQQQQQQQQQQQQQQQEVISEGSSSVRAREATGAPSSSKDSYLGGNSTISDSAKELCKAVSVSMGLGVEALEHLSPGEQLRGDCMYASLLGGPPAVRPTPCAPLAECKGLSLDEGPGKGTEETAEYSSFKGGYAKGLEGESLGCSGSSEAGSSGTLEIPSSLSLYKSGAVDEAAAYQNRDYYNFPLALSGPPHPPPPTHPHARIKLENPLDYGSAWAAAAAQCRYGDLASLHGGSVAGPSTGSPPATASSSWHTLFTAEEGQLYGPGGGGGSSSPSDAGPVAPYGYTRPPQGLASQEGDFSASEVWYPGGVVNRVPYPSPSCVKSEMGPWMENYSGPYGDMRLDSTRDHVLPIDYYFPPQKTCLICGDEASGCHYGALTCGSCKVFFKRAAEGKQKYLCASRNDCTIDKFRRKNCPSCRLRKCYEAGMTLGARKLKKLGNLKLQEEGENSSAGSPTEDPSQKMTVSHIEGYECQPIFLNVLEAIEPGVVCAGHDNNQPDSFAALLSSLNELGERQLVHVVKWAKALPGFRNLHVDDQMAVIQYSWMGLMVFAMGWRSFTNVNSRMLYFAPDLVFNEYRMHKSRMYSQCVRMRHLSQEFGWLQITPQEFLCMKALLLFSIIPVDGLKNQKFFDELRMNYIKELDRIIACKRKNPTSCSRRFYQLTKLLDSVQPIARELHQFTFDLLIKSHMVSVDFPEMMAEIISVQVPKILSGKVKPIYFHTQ

IC50 [nM]	SMILES
1500	Cn1c2c(c3cc(Cl)ccc31)CSc1ccccc1-2
3700	Cn1c2c(c3cc(F)ccc31)CSc1ccccc1-2
2300	CCn1c2c(c3cc(O)ccc31)CSc1ccccc1-2
130	Cn1c2c(c3ccc(O)cc31)CSc1ccccc1-2
4500	Oc1ccc2[nH]c3c(c2c1)CSc1ccccc1-3
630	Cn1c2c(c3cc(O)ccc31)CSc1cc(F)ccc1-2
110	Cn1c2c(c3cc(O)ccc31)CSc1ccc(F)cc1-2
880	CC(=O)Oc1ccc2c(c1)c1c(n2C)-c2ccccc2SC1
3000	COc1ccc2c(c1)SCc1c-2n(C)c2ccc(O)cc12
2800	Cn1c2c(c3cc(O)ccc31)CSc1cc(Br)ccc1-2
3400	Cn1c2c(c3ccc(O)cc31)C(C)(C)Sc1cc(O)ccc1-2
2800	Cn1c2c(c3cc(F)ccc31)CSc1cc(C(F)(F)F)ccc1-2
1000	CC(=O)n1c2c(c3cc(O)ccc31)CSc1ccccc1-2
3800	Cn1c2c(c3cccc(O)c31)CSc1cc(F)ccc1-2
5000	Cn1c2c(c3ccc(O)cc31)CCSc1ccccc1-2
2100	Cn1c2c(c3cc(O)ccc31)CSc1cc(O)ccc1-2
110	Cn1c2c(c3cc(O)ccc31)CSc1ccccc1-2

SMILES	IC50 [nM]
Cn1c2c(c3cc(O)ccc31)CSc1ncccc1-2	52
Cn1c2c(c3ccc(O)cc31)CCc1ccccc1-2	30
Cn1c2c(c3cc(O)ccc31)CCc1sccc1-2	580
Cn1ccc2c1CCc1c-2n(C)c2ccc(O)cc12	370
Cn1c2c(c3cc(O)ccc31)CCc1cnccc1-2	930
Cn1c2c(c3ccc(O)cc31)CCCc1ccccc1-2	920
Cn1c2c(c3cc(O)ccc31)CCc1ncccc1-2	29

target: T2, Androgen receptor (Rattus norvegicus) (UniProt P15207); test: Inhibition of rat AR-mediated reporter gene expression in COS7 cells at 3 uM; assay type: cell-based; conditions: COS-7
T2 sequence (whole entry): T1 sequence (P15207 whole entry)

inhibition [%]	SMILES
42	Cn1c2c(c3cc(O)ccc31)CCC1=CC(=O)CCC12C (configuration not stated)
29	Cn1c2c(c3ccc(O)cc31)CCc1ncccc1-2
33	Cn1c2c(c3cc(O)ccc31)CCc1nccnc1-2

target: T2, Androgen receptor (Rattus norvegicus); test: Inhibition of rat AR-mediated reporter gene expression in COS7 cells at 10 uM; assay type: cell-based; conditions: COS-7

inhibition [%]	SMILES
48	Cn1c2c(c3cc(F)ccc31)CSc1cc(F)ccc1-2

target: T2, Androgen receptor (Rattus norvegicus); test: Inhibition of rat AR-mediated reporter gene expression in COS7 cells; conditions: COS-7

Activity	SMILES
inactive	Cn1c2c(c3ccccc31)CSc1ccccc1-2
inactive	CN(C)CCn1c2c(c3cc(O)ccc31)CSc1ccccc1-2
inactive	Cn1c2c(c3ccc(O)cc31)CCC1=CC(=O)CCC12C (configuration not stated)
inactive	CN1c2ccc(O)cc2C(=O)C2CCc3ccccc3C21 (configuration not stated)
inactive	CN1Cc2c(n(C)c3cc(O)ccc23)-c2ccccc21
inactive	Cn1c2c(c3cc(C#N)ccc31)CSc1ccccc1-2
inactive	Cn1c2c(c3cc(O)ccc31)CS(=O)(=O)c1ccccc1-2
inactive	COc1ccc2c(c1)c1c(n2C)-c2ccccc2SC1
inactive	CN1C(=O)CCC2(C)c3c(c4cc(O)ccc4n3C)CCC12 (configuration not stated)
inactive	Cn1c2c(c3cc(Br)ccc31)CSc1ccccc1-2
inactive	Cn1c2c(c3cc(O)ccc31)C[S+]([O-])c1ccccc1-2 (configuration not stated)
inactive	Cn1c2c(c3ccc(O)cc31)SCc1ccccc1-2
inactive	Oc1ccc2nc3c(c(O)c2c1)CCc1ccccc1-3
inactive	Cc1ccc2c(c1)c1c(n2C)-c2ccccc2SC1
